Results: article PMC12226413, “Downregulation of O‐GlcNAcylation enhances etoposide‐induced p53‐mediated apoptosis in HepG2 human liver cancer cells” (FEBS Open Bio, 2025)

Key:
[1] = target: T1, Recombinant human OGT protein (O-GlcNAc transferase) (Homo sapiens, UniProt O15294); experiment: UDP-Glo glycosyltransferase assay (luminescence); format: biochemical; conditions: UDP-GlcNAc and peptide KKKYPGGSTPVSSANMM as substrates; 25 mM Tris pH 7.5, 12.5 mM MgCl2, 0.06 mg/mL BSA, 1 mM DTT; unreliable
T1 construct: recombinant human OGT from R&D Systems
T1 sequence (O15294 2-1046): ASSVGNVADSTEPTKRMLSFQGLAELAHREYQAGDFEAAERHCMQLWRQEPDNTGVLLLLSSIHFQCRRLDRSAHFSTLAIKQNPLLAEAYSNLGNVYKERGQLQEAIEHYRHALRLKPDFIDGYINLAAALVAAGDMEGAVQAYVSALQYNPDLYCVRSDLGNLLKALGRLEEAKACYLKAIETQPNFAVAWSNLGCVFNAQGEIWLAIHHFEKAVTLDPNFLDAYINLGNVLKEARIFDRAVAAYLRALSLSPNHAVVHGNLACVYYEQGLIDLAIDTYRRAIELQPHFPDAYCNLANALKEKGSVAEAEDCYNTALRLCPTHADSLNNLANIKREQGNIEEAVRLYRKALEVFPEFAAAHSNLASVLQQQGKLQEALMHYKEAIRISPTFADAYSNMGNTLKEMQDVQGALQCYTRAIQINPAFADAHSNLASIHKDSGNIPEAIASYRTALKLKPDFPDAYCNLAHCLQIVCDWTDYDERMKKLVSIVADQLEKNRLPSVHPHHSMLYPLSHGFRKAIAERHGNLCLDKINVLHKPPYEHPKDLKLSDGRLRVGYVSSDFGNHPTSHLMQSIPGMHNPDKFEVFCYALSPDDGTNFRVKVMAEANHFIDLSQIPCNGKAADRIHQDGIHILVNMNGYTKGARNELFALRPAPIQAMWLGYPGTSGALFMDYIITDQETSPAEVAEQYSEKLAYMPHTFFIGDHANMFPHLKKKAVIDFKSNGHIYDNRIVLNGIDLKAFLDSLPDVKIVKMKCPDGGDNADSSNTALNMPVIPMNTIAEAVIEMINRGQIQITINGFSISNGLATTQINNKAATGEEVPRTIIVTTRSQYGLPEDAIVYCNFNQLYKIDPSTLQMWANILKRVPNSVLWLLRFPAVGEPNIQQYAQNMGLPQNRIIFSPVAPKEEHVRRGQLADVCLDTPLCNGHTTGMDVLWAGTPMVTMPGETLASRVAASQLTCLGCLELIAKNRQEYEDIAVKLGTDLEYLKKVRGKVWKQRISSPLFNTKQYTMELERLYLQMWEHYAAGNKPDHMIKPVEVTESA

[2] = target: T1, Recombinant human OGT protein (O-GlcNAc transferase); experiment: UDP-Glo glycosyltransferase assay (luminescence); format: biochemical

% inhibition at 400 μM [1] | IC50 [2] [µM] | SMILES
~ 47.3% | – | COc1cc([C@@H]2c3cc4c(cc3[C@@H](O[C@@H]3O[C@@H]5CO[C@@H](C)O[C@H]5[C@H](O)[C@H]3O)[C@H]3COC(=O)[C@H]23)OCO4)cc(OC)c1O [Etoposide]
– | 4.47 | COc1ccccc1[C@@H](NS(=O)(=O)c1ccc2[nH]c(=O)ccc2c1)C(=O)N(Cc1ccco1)Cc1cccs1 [OSMI-1]
